Results from patent US9055743B2, “Alpha, beta-unsaturated imines” (BAYER INTELLECTUAL PROPERTY GMBH, priority 2010, dated 2015).

Key:
Format in all cases: in vivo
Ctenocephalides felis = Ctenocephalides felis oral test (CTECFE); conditions: 100 ppm in citrated cattle blood, after two days
Summary of the method: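 About 20 unfed adult C. felis fed through a parafilm membrane on citrated cattle blood containing compound (DMSO stock diluted to the desired concentration). Kill (%) determined after two days; 100% = all fleas dead, 0% = none dead.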

[1] = test system: green peach aphid (Myzus persicae); assay: Myzus test (MYZUPE spray treatment); conditions: 500 g/ha, spray, after 6 days; for pest or weed control at 500 g/ha: Myzus persicae, 144 h, read-out: activity (aphids killed)
Summary of the method: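 Chinese cabbage leaf discs infested with all aphid stages were sprayed with compound in acetone/DMF with emulsifier, diluted in emulsifier-containing water. Mortality in % assessed after 6 days (100% = all aphids killed).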

Boophilus microplus = Boophilus microplus test (BOOPMI injection); conditions: for activity (100% = none of the ticks has laid any fertile eggs): 20 μg/animal, injection into the abdomen, after 7 days
Summary of the method: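 Ticks injected in the abdomen with compound in DMSO, then held in a climatized room. Effect scored after 7 days as % reduction in fertile egg laying, 100% meaning no fertile eggs.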

[2] = test system: Anopheles gambiae (homocygus kdr); assay: Anopheles test (ANPHGB surface treatment); conditions: for knock-down activity: 100 mg/m^2, two hours after contact, exposition 30 minutes; for mortality at 100 mg/m2: Anopheles gambiae, read-out: activity (mortality in %); for Kill rate in % after 24 hours: active compound concentration 1.6 g/ha
Summary of the method: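 Compound dissolved in acetone at 2 mg/ml, pipetted onto glazed tile and dried; adult kdr-homozygous mosquitoes exposed on the tile for 30 min. Knock-down (%) read 2 h and mortality (%) 24 h after contact.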

Musca domestica = Musca domestica test (MUSCDO); conditions: 100 ppm, after 2 days
Protocol: Musca domestica Test (MUSCDO)
Solvent: Dimethyl Sulphoxide
To produce a suitable preparation of active compound, 10 mg of active compound are mixed with 0.5 ml of dimethyl sulphoxide and the concentrate is diluted with water to the desired concentration. Vessels containing a sponge treated with the active compound preparation of the desired concentration are populated with adult Musca domestica.
After 2 days, the kill in % is determined 100% means that all flies have been killed; 0% means that none of the flies have been killed.

[3] = test system: larvae of the mustard beetle (Phaedon cochleariae); assay: Phaedon test (PHAECO spray treatment); conditions: 500 g/ha, spray, after 7 days; for pest or weed control at 500 g/ha: Phaedon cochleariae, 168 h, read-out: activity (beetle larvae killed)
Summary of the method: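 Chinese cabbage leaf discs sprayed with compound formulated in acetone/dimethylformamide with alkylaryl polyglycol ether emulsifier, diluted in emulsifier-containing water to the desired concentration. After drying, discs were populated with mustard beetle larvae.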

Lucilia cuprina larvae = assay: Lucilia cuprina test (LUCICU); conditions: 100 ppm, after 2 days
Summary of the method: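 Horsemeat treated with compound (DMSO concentrate diluted in water) was populated with about 20 L. cuprina larvae. Percent kill was scored after 2 days, from 100% (all larvae dead) to 0% (none dead).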

Aedes aegypti = assay: Aedes test (AEDSAE surface treatment); conditions: for knock-down activity: 100 mg/m^2, two hours after contact, exposition 30 minutes; for mortality at 100 mg/m2: Aedes aegypti, read-out: activity (mortality in %); for Kill rate in % after 24 h: active compound concentration 1.6 g/ha
Summary of the method: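 Compound dissolved in acetone (2 mg/ml) and dried onto a glazed tile; adult mosquitoes exposed for 30 minutes. Knock-down % scored at 2 hours and mortality % at 24 hours after contact (100% = all killed).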

[4] = test system: greenhouse red spider mite (Tetranychus urticae); assay: Tetranychus test; OP-resistant (TETRUR spray treatment); conditions: 500 g/ha, spray, after 6 days; for pest or weed control at 500 g/ha: Tetranychus urticae, 144 h, read-out: activity (spider mites killed)
Summary of the method: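 Bean leaf discs infested with all stages of OP-resistant Tetranychus urticae were sprayed with compound in acetone/DMF with alkylaryl polyglycol ether emulsifier, diluted in emulsifier-water. Mortality was scored after 6 days: 100% means all mites killed, 0% none.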

Culex quinquefasciatus = assay: whole plant or invertebrate; conditions: for knock-down activity: 100 mg/m^2, two hours after contact, exposition 30 minutes; for mortality at 100 mg/m2: Culex quinquefasciatus, read-out: activity (mortality in %)
Protocol: Culex Test (CULXFA Surface Treatment) Solvent: Acetone
To produce a suitable preparation of active compound, the active compound is dissolved in acetone (2 mg/ml). The active compound preparation is pipetted onto a glazed tile and, after drying, adult mosquitoes of the species Culex quinquefasciatus are placed onto the treated tile. The exposition time is 30 minutes.
Two hours after contact to the treated surface, the knock-down proportion of the test animals in % is determined.
24 hours after contact to the treated surface, the mortality in % is determined. Here, 100% means that all mosquitoes have been killed; 0% means that none of the mosquitoes has been killed.

[5] = test system: caterpillars of the army worm (Spodoptera frugiperda); assay: Spodoptera frugiperda test (SPODFR spray treatment); conditions: 500 g/ha, spray, after 7 days; for pest or weed control at 500 g/ha: Spodoptera frugiperda, 168 h, read-out: activity (caterpillars killed)
Summary of the method: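 Maize leaf discs sprayed with compound formulated in acetone/dimethylformamide plus alkylaryl polyglycol ether emulsifier and diluted in water, then infested with Spodoptera frugiperda caterpillars once dry. Mortality scored after 7 days as % activity, where 100% means all caterpillars killed.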

SMILES | activity (kill in %) (Ctenocephalides felis) [%] | pest or weed control at 500 g/ha [1] [%] | activity (100% = none of the ticks has laid any fertile eggs) (Boophilus microplus) [%] | knock-down activity [2] [%] | mortality at 100 mg/m2 [2] [%] | Kill rate in % after 24 hours [2] [%] | activity (kill in %) (Musca domestica) [%] | pest or weed control at 500 g/ha [3] [%] | activity (kill in %) (Lucilia cuprina larvae) [%] | knock-down activity (Aedes aegypti) [%] | mortality at 100 mg/m2 (Aedes aegypti) [%] | Kill rate in % after 24 h (Aedes aegypti) [%] | pest or weed control at 500 g/ha [4] [%] | knock-down activity (Culex quinquefasciatus) [%] | mortality at 100 mg/m2 (Culex quinquefasciatus) [%] | pest or weed control at 500 g/ha [5] [%] | further results
Cc1ccc(N=C2C(=CSc3ccc(F)cc3)CCc3cc(F)ccc32)cc1 [Example 1-16] | 100 | 100 | 100 | 100 | 100 | 80 | 80 | 100 | 100 | 100 | 100 | 90 | 100 | 95 | 100 | 100 | Kill rate in % after 7 days (Boophilus microplus; active compound concentration 0.16 μg/animal): 90%
Cc1ccc(N=C2C(=CSc3ccc(F)cc3)CSc3ccccc32)cc1 [Example 1-35] | 100 | 100 | 100 | 100 | 100 | 100 |  | 100 | 100 | 90 | 100 | 100 | 100 |  | 100 | 100 | 
Cc1ccc(N=C2C(=CSc3ccc(F)cc3)C(C)c3ccccc32)cc1 (stereo not drawn) [Example 1-57] | 100 | 100 | 100 | 80 | 100 | 100 | 85 | 100 | 100 | 100 | 100 |  | 100 |  | 100 | 100 | 
Cc1ccc(N=C2C(=CSc3ccc(F)cc3)CCc3ccccc32)cc1 [Example 1-9] | 100 | 100 | 100 | 100 | 100 | 100 | 90 | 100 | 100 | 100 | 100 | 75 | 100 | 100 | 100 | 100 | 
Cc1ccc(N=C2C(=CSc3ccc(C)cc3)CCc3ccccc32)cc1 [Example 1-28] | 100 |  | 100 | 100 |  |  | 80 |  | 100 | 80 |  |  |  | 95 |  |  | activity (aphids killed) [1]: 90%; activity (beetle larvae killed) [3]: 100%; activity (spider mites killed) [4]: 100%; activity (caterpillars killed) [5]: 100%
